Reference: patent US5814470A, “Melittin-related polypeptides, mixture sets and libraries thereof” (priority 1997, dated 1998)

Tests used:
[1] = tested on: human red blood cells (RBCs); test: Hemolytic activity (HD50); type: cell-based; details: one hour at 37° C., OD 414 nm
Protocol: The hemolytic activities of the polypeptide mixture sets were determined by using human red blood cells (RBCs). The cells were washed three times with phosphate-buffered saline (PBS/35 mM phosphate buffer--0.15M NaCl, pH 7.0) and resuspended in PBS. The hemolytic activity of the polypeptide sets were determined as described in Blondelle et al., Biochem. Biophys. Acta, 1202:331-336 (1993) using 96 well tissue culture plates. In brief, 100 μl of 0.5 percent RBC solution were added to an equal volume of peptides in PBS. The plates were incubated for one hour at 37° C. and the optical density (OD) of the supernatant was measured at 414 nm. The concentration in peptide necessary to lyse 50 percent RBCs (HD50) was then determined for each peptide using a sigmoidal curve fitting method (Graphpad).

Staphylococcus aureus = details: no change in optical density over 18 hours; slightly different conditions; cited from earlier work
[2] = Polypeptide conformation by CD spectroscopy (α-helix content); type: physicochemical; details: in the presence of 100 mM NaCl, 25° C.
Protocol: The library of sets of Example 1 was examined for the ability of each set to adopt an α-helical conformation. […] In the presence of 100 mM NaCl, the percent of α-helices varied from 20 to 40 percent.
All measurements were carried out on a Jasco J-720 circular dichroism spectropolarimeter (CD-Eaton, Md.), in conjunction with a Neslab RTE 110 waterbath and temperature controller at 25° C. (Dublin, Calif.). CD spectra were the average of a series of three to seven scans made at 0.2 nm intervals. Ellipticity was determined as means residue ellipticity, θ; the limits of error of measurements at 222 nm were ±500 (deg cm2 dmol^-1). For salt induced aggregation, stock solutions were separately prepared with 150 μM polypeptide sets in buffer (5 mM MOPS-NaOH, 100 mM NaCl).

Melittin
HD50 (concentration necessary to lyse 50 percent RBCs) [1]: 6 µg/mL | minimum inhibitory concentration (MIC) (Staphylococcus aureus): 25 µg/mL | percent of α-helices (helicity) [2]: about 20%
